Experimental data from publication PMC11274128, “Modification and Synergistic Studies of a Novel Frog Antimicrobial Peptide against Pseudomonas aeruginosa Biofilms” (Antibiotics, 2024).
Converted amounts (≈) assume the structure as drawn. Bridge positions count the residues as written; N and C are the ends. Peptide text beside a SMILES is read from it.

Assays:
S. aureus (ATCC 6538) = test: microbe, parasite or virus in culture; format: cell-based, Staphylococcus aureus; settings: planktonic S. aureus ATCC 6538; for MIC: 37 °C, nine repeats of three independent experiments, read-out: MIC; for MBC: lowest concentration killing 99.9% of inoculum, read-out: MBC
From the text: (§1) The minimum inhibitory concentration (MIC) is the minimum concentration of an antimicrobial agent that prevents the visible growth of a bacterium or bacteria. The MIC is an important piece of data for research on new antimicrobial agents and helps in the effective selection of antibiotics to improve the success of treatment. The minimum bactericidal concentration (MBC) is defined as the lowest antibiotic concentration that kills 99.9% of the inoculum. This study mainly contained eight different microorganisms, which were Staphylococcus aureus (ATCC 6538), methicillin-resistant Staphylococcus aureus (NCTC 12493), Enterococcus faecalis (NCTC 12697), Escherichia coli (ATCC 8739), Klebsiella pneumoniae (ATCC 43816), Pseudomonas aeruginosa (ATCC CRM 9027), Acinetobacter baumannii (BAA 747), and Candida albicans (ATCC 10231). The bacteria were incubated in the compatible medium at 37 °C overnight.

MRSA (NCTC 12493) = test: microbe, parasite or virus in culture; format: cell-based, methicillin-resistant Staphylococcus aureus; settings: planktonic MRSA NCTC 12493; for MIC: 37 °C, nine repeats of three independent experiments; for MBC: lowest concentration killing 99.9% of inoculum
From the text: as §1

[1] = tested on: K. pneumoniae (ATCC 43816); test: microbe, parasite or virus in culture; format: cell-based, Klebsiella pneumoniae; settings: planktonic K. pneumoniae ATCC 43816; for MIC: 37 °C, nine repeats of three independent experiments; for MBC: lowest concentration killing 99.9% of inoculum
From the text: as §1

[2] = tested on: S. aureus ATCC 6538 biofilm; format: cell-based, Staphylococcus aureus; settings: for MBIC: lowest concentration inhibiting at least 90% of biofilm formation; for MBEC: minimum concentration eradicating at least 99% of the biofilm
From the text: (§2) The minimum bactericidal concentration (MBC) is defined as the lowest antibiotic concentration that kills 99.9% of the inoculum. The minimum biofilm inhibitory concentration (MBIC) is the lowest concentration that inhibits at least 90% of the formation of biofilm. The minimum biofilm eradication concentration (MBEC) is the minimum concentration that can eradicate at least 99% of the biofilm. In addition to the eight microorganisms described previously, this experiment was also applied to P. aeruginosa (ATCC 27853, ATCC BAA-2108, P. aeruginosa 01, P. aeruginosa 14).

[3] = tested on: A. baumannii BAA 747 biofilm; format: cell-based, Acinetobacter baumannii; settings: for MBIC: lowest concentration inhibiting at least 90% of biofilm formation; for MBEC: minimum concentration eradicating at least 99% of the biofilm
From the text: as §2

horse red blood cells = horse red blood cells in PBS, 37 °C, 2 h, absorbance 570 nm; positive control 0.1% Triton
Method: The pure peptide was dissolved in PBS and then two-fold diluted to obtain a series of concentrations: 512, 256, 128, 64, 32, 16, 8, 4, and 2 μM. A positive control (0.1% Triton) and blank control (PBS) were used. Two millilitres of fresh horse red blood cells were washed in PBS until the supernatant became colourless and clear, and the mixture was then thoroughly mixed. Each mixture contained 100 μL of peptide solution or controls and 100 μL of horse red blood cells, which were then incubated at 37 °C for 2 h and centrifuged at 930× g for 10 min. Subsequently, 100 μL of supernatant from each tube was transferred into a 96-well plate, and the plate reader measured the absorbance at a wavelength of 570 nm. The haemolysis rate was calculated using the following formula:Percentage Haemolysis= (ASample − ABlank)/(APositive − ABlank) × 100%

G+ Bacteria = test: Geometric mean of MICs and TI value; format: cell-based; settings: geometric mean of MICs against tested Gram-positive bacteria
Method: The therapeutic potential of antimicrobial agents was valued based on their selectivity toward bacteria in reference to erythrocytes. The TI value was calculated from the results of antibacterial and haemolysis experiments of peptides using the following formula:TI value = HC10 / GMMICs.
GM was the geometric mean of MICs against all tested bacteria.

Compound | MIC (S. aureus (ATCC 6538)) [µM] | MBC (S. aureus (ATCC 6538)) [µM] | MIC (MRSA (NCTC 12493)) [µM] | MBC (MRSA (NCTC 12493)) [µM] | MIC [1] [µM] | MBC [1] [µM] | MBIC [2] | MBEC [2] | MBIC [3] | MBEC [3] | HC10 (horse red blood cells) [µM] | GM (geometric mean of MICs), G+ Bacteria (G+ Bacteria) [µM]
CC[C@H](C)[C@H](NC(=O)[C@H](CCCCN)NC(=O)[C@H](CCCCN)NC(=O)CNC(=O)[C@H](C)NC(=O)[C@H](CCCNC(=N)N)NC(=O)[C@H](CC(C)C)NC(=O)[C@@H](NC(=O)[C@H](C)NC(=O)[C@H](CCCNC(=N)N)NC(=O)[C@H](CC(C)C)NC(=O)[C@H](CC(C)C)NC(=O)CN)C(C)C)C(=O)N[C@H](C(=O)N[C@H]1CSSC[C@@H](C(=O)O)NC(=O)[C@H](CCCNC(=N)N)NC(=O)CNC(=O)[C@H](CO)NC(=O)[C@H](CC(C)C)NC(=O)CNC1=O)C(C)C [Peptide 2170-2R] (H-GLLRAVLRAGKKIVCGLSGRC-OH; disulfide 15-21) | 4 (≈ 8.67 µg/mL) | 8 (≈ 17.3 µg/mL) | 16 (≈ 34.7 µg/mL) | 16 (≈ 34.7 µg/mL) | 32 (≈ 69.4 µg/mL) | 32 (≈ 69.4 µg/mL) | 4 µM | 16 µM | 8 µM | 16 µM | >256 | –
CC[C@H](C)[C@H](NC(=O)[C@H](CCCCN)NC(=O)[C@H](CCCCN)NC(=O)CNC(=O)[C@H](C)NC(=O)CNC(=O)[C@H](CC(C)C)NC(=O)[C@@H](NC(=O)CNC(=O)[C@H](CO)NC(=O)[C@H](CC(C)C)NC(=O)[C@H](CC(C)C)NC(=O)CN)C(C)C)C(=O)N[C@H](C(=O)N[C@H]1CSSC[C@@H](C(=O)O)NC(=O)[C@H](CCCNC(=N)N)NC(=O)CNC(=O)[C@H](CO)NC(=O)[C@H](CC(C)C)NC(=O)CNC1=O)C(C)C [Nigrosin-6VL] (H-GLLSGVLGAGKKIVCGLSGRC-OH; disulfide 15-21) | 16 (≈ 31.8 µg/mL) | 32 (≈ 63.6 µg/mL) | > 128 | > 128 | 128 (≈ 254 µg/mL) | 128 (≈ 254 µg/mL) | 128/>128 µM | 128/>128 µM | >128/>128 µM | >128/>128 µM | >256 | 101.59
